We go through 31 compounds from patent US20260138961A1, “MODULATORS OF MITOCHONDRIAL DNA REPLICATION” (Pretzel Therapeutics, Inc., priority 2022, published 2026).

The term AC50 denotes the midpoint of the concentration-response curve, whichever way the signal moves.

Each structure is given as a SMILES string.

This test concerns the target T1, POLγA:G848S (Homo sapiens, UniProt P54098, G848S).
T1 sequence (P54098 1-1239 G848S): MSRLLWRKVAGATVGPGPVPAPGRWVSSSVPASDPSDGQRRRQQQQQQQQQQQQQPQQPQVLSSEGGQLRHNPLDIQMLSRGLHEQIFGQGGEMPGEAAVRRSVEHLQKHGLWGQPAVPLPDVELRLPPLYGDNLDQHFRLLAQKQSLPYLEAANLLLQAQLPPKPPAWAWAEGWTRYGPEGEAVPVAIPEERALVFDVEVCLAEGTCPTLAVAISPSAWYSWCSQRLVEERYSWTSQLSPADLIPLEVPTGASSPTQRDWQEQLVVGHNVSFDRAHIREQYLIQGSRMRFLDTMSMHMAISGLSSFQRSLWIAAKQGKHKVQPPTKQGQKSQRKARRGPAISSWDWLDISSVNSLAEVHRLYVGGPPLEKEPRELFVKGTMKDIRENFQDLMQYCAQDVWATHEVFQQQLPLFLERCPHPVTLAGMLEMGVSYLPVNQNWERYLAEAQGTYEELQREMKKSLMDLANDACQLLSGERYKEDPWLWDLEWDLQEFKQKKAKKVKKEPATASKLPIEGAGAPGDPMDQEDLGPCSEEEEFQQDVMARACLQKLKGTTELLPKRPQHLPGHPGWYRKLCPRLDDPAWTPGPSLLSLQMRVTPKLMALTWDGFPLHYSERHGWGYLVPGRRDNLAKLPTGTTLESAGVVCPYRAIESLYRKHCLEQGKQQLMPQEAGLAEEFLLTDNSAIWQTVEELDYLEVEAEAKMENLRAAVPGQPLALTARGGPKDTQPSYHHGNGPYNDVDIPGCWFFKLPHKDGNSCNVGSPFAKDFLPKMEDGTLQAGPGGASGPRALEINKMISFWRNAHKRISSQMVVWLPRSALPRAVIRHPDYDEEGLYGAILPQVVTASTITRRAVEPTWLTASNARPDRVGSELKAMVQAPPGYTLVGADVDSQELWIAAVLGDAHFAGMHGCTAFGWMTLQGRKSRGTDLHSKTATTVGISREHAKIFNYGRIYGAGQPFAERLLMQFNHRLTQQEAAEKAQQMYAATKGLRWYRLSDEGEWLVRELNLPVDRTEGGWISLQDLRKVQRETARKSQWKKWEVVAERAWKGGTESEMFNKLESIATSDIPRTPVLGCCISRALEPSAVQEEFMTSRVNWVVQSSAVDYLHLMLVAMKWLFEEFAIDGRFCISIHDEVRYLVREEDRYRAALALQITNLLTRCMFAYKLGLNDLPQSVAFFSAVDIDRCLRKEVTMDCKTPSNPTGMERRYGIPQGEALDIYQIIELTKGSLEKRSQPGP
T1 sequence (Q9UHN1 1-485 partner): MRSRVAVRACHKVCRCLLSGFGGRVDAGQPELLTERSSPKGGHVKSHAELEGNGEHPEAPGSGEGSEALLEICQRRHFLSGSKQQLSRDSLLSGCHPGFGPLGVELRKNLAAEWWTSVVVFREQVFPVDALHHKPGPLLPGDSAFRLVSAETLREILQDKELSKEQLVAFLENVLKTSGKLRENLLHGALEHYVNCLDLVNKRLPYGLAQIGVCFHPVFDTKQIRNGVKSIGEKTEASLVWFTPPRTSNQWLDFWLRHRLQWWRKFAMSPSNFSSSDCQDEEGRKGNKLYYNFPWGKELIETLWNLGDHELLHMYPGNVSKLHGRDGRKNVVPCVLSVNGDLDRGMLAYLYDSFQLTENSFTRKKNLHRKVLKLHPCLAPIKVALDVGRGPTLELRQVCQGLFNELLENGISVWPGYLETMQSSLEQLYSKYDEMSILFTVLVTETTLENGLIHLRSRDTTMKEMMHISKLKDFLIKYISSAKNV
In words: DNA polymerization assay, POLγA:G848S mutant. The format is biochemical. The settings on record: stimulation of polymerase activity, primed M13mp18 ssDNA, 37° C. 2 hours; read-out: G848S AC50.
With `Cc1cc(S(=O)(=O)Nc2cccc(C(=O)N(C)C(C)CO)c2)c(C)cc1Cl` (single isomer, unassigned) [Example 15, 3-((4-chloro-2,5-dimethylphenyl)sulfonamido)-N-(1-hydroxypropan-2-yl)-N-methylbenzamide], the AC50 was 30 µM. In the case of `Cc1csc(-c2cccc(NS(=O)(=O)c3cc(C)c(Cl)cc3C)c2)n1` [Example 20, 4-chloro-2,5-dimethyl-N-(3-(4-methylthiazol-2-yl)phenyl)benzenesulfonamide] it was 2 µM; in that of `Cc1cnc(-c2cccc(NS(=O)(=O)c3cc(C)c(Cl)cc3C)c2)s1` [Example 21, 4-chloro-2,5-dimethyl-N-(3-(5-methylthiazol-2-yl)phenyl)benzenesulfonamide], 2 µM. In the case of `Cc1cc(S(=O)(=O)N(C)c2cccc(-c3nccs3)c2)c(C)cc1Cl` [Example 22, 4-chloro-N,2,5-trimethyl-N-(3-(thiazol-2-yl)phenyl)benzenesulfonamide] it was > 100 µM; in that of `Cc1ccccc1S(=O)(=O)Nc1cccc(C(=O)N2CCOC[C@@H]2C)c1` [Example 23, (S)-2-methyl-N-(3-(3-methylmorpholine-4-carbonyl)phenyl)benzenesulfonamide], > 100 µM; in that of `Cc1ccc(C)c(S(=O)(=O)Nc2cccc(C(=O)N3CCSCC3)c2)c1` [Example 24, 2,5-dimethyl-N-(3-(thiomorpholine-4-carbonyl)phenyl)benzenesulfonamide], > 100 µM. In the case of `Cc1ccc(C)c(S(=O)(=O)Nc2cccc(C(=O)N(C)C)c2)c1` [Example 25, 3-((2,5-dimethylphenyl)sulfonamido)-N,N-dimethylbenzamide], the AC50 was > 100 µM. The figure for `Cc1ccc(C)c(S(=O)(=O)Nc2cccc(C(=O)N(C)Cc3ccccc3)c2)c1` [Example 26, N-benzyl-3-((2,5-dimethylphenyl)sulfonamido)-N-methylbenzamide] is 50 µM; for `Cc1ccc(C)c(S(=O)(=O)Nc2cccc(C(N)=O)c2)c1` [Example 27, 3-((2,5-dimethylphenyl)sulfonamido)benzamide] it is > 100 µM; for `Cc1ccc(C)c(S(=O)(=O)Nc2cccc(C(=O)NCc3ccccc3)c2)c1` [Example 28, N-benzyl-3-((2,5-dimethylphenyl)sulfonamido)benzamide] it is > 100 µM. Take `Cc1ccc(C)c(S(=O)(=O)Nc2cccc(C(=O)N3CCOCC3)c2)c1` [Example 29, 2,5-dimethyl-N-(3-(morpholine-4-carbonyl)phenyl)benzenesulfonamide]: the half-maximal activity concentration (AC50) was 33 µM. Regarding `CC(=O)N1CCN(C(=O)c2cccc(NS(=O)(=O)c3cc(C)ccc3C)c2)CC1` [Example 30, N-(3-(4-acetylpiperazine-1-carbonyl)phenyl)-2,5-dimethylbenzenesulfonamide], the concentration at half-maximal activity (AC50) was determined as 22 µM. Consider `Cc1ccc(C)c(S(=O)(=O)Nc2cccc(C(=O)N3CCN(C)CC3)c2)c1` [Example 31, 2,5-dimethyl-N-(3-(4-methylpiperazine-1-carbonyl)phenyl)benzenesulfonamide], for which the AC50 was > 100 µM. As for `Cc1ccc(C)c(S(=O)(=O)Nc2cccc(C(=O)N3CCCCCC3)c2)c1` [Example 32, N-(3-(azepane-1-carbonyl)phenyl)-2,5-dimethylbenzenesulfonamide], the half-maximal activity concentration (AC50) amounted to 35 µM. In the case of `Cc1ccc(C)c(S(=O)(=O)Nc2cccc(C(=O)N(C)CC3CC3)c2)c1` [Example 33, N-(cyclopropylmethyl)-3-((2,5-dimethylphenyl)sulfonamido)-N-methylbenzamide], the half-maximal activity concentration (AC50) was determined as 56 µM.

As to `COc1ccc(S(=O)(=O)Nc2cccc(C(=O)N3CCSCC3C#N)c2)cc1` (stereo not shown) [Example 34, N-(3-(3-cyanothiomorpholine-4-carbonyl)phenyl)-4-methoxybenzenesulfonamide], the AC50 stood at 37 µM. In the case of `N#CC1CSCCN1C(=O)c1cccc(NS(=O)(=O)c2cccc(C(F)(F)F)c2)c1` (stereo not shown) [Example 35, N-(3-(3-cyanothiomorpholine-4-carbonyl)phenyl)-3-(trifluoromethyl)benzenesulfonamide], the AC50 is > 100 µM. On to `Cc1cc(S(=O)(=O)Nc2cccc3c2CC(=O)N3)c(C)cc1Cl` [Example 36, 4-chloro-2,5-dimethyl-N-(2-oxoindolin-4-yl)benzenesulfonamide], for which the half-maximal activity concentration (AC50) was > 100 µM.

On to `Cc1cc2c(NS(=O)(=O)c3cc(C)c(Cl)cc3C)cccc2[nH]1` [Example 37, 4-chloro-2,5-dimethyl-N-(2-methyl-1H-indol-4-yl)benzenesulfonamide], for which the AC50 was > 100 µM. In the case of `Cc1ccc(C)c(S(=O)(=O)Nc2cncc(C(=O)N3CCOCC3)c2)c1` [Example 38, 2,5-dimethyl-N-(5-(morpholine-4-carbonyl)pyridin-3-yl)benzenesulfonamide], the concentration at half-maximal activity (AC50) was > 100 µM.

Turning to `Cc1ccc(C)c(S(=O)(=O)Nc2ccc(C(=O)N[C@@H](C)C3CC3)cc2)c1` [Example 39, (S)-N-(1-cyclopropylethyl)-4-((2,5-dimethylphenyl)sulfonamido)benzamide], the concentration at half-maximal activity (AC50) was > 100 µM. In the case of `Cc1ccc(C)c(S(=O)(=O)Nc2ccc(C(=O)NCC3CC3)cc2)c1` [Example 40, N-(cyclopropylmethyl)-4-((2,5-dimethylphenyl)sulfonamido)benzamide] it was > 100 µM; in that of `Cc1ccc(C)c(S(=O)(=O)Nc2cccc(C(=O)N3CCSCC3C(N)=O)c2)c1` (stereo not shown) [Example 41, 4-(3-((2,5-dimethylphenyl)sulfonamido)benzoyl) thiomorpholine-3-carboxamide], 21 µM.

In the case of `Cc1cc(NS(=O)(=O)c2cc(C)ccc2C)cc(C(=O)N2CCCC[C@H]2C)c1` [Example 42, (R)-2,5-dimethyl-N-(3-methyl-5-(2-methylpiperidine-1-carbonyl)phenyl)benzenesulfonamide], the AC50 is > 100 µM. Take `Cc1ccc(C)c(S(=O)(=O)Nc2ccc(C(=O)N3CCCC[C@H]3C)s2)c1` [Example 43, (R)-2,5-dimethyl-N-(5-(2-methylpiperidine-1-carbonyl)thiopheN-2-yl)benzenesulfonamide]: the AC50 was 51 µM. In the case of `Cc1cc(S(=O)(=O)Nc2cccc(C(N)=O)c2)c(C)cc1Cl` [Example 44, 3-((4-chloro-2,5-dimethylphenyl)sulfonamido)benzamide], the AC50 came to 27 µM.

As for `Cc1cc(S(=O)(=O)Nc2cccc(C(=O)N3CCNCC3)c2)c(C)cc1Cl` [Example 46, 4-chloro-2,5-dimethyl-N-(3-(piperazine-1-carbonyl)phenyl)benzenesulfonamide], the concentration at half-maximal activity (AC50) was 91 µM. For `COCCNC(=O)c1cccc(NS(=O)(=O)c2cc(C)c(Cl)cc2C)c1` [Example 47, 3-((4-chloro-2,5-dimethylphenyl)sulfonamido)-N-(2-methoxyethyl)benzamide], the AC50 was 39 µM. The figure for `Cc1cc(S(=O)(=O)Nc2cccc(C(=O)N[C@H](C)c3ccccc3)c2)c(C)cc1Cl` [Example 48, (R)-3-((4-chloro-2,5-dimethylphenyl)sulfonamido)-N-(1-phenylethyl)benzamide] is 13 µM; for `Cc1cc(S(=O)(=O)Nc2ccc(F)c(C(=O)N3CCC[C@H]3C)c2)c(C)cc1Cl` [Example 49, (R)-4-chloro-N-(4-fluoro-3-(2-methylpyrrolidine-1-carbonyl)phenyl)-2,5-dimethylbenzenesulfonamide] it is 14 µM; for `Cc1cc(S(=O)(=O)Nc2cc(C(=O)N3CCC[C@H]3C)ccc2F)c(C)cc1Cl` [Example 50, (R)-4-chloro-N-(2-fluoro-5-(2-methylpyrrolidine-1-carbonyl)phenyl)-2,5-dimethylbenzenesulfonamide] it is 11 µM.
